Series [1] can be described thus: In vitro drug release study by dialysis. The series is classed as physicochemical. The protocol:
In vitro drug release study. The in vitro drug release study for SM from nanoparticles and nanoparticles incorporated thermo-reversible gel were compared with plain drug solution and was studied at 37°±0.5° C. In short, drug solution in DMSO, SM-NPs and SM-NP Gel having equivalent quantity of SM (1 mg/ml) were placed in dialysis tubes (MWCO 10 KDa) and sealed tightly by using dialysis closures. Then, the dialysis tubes were immersed in 20 ml of PBS (pH 7.4) as a release medium comprising of 0.1% Tween 80 (v/v). Release medium was allowed to stir at 150 rpm and the 0.5 mL of samples were withdrawn at 0.25, 0.5, 1, 2, 4, 6, 12, 24, 48, 72, 96, 120, 144 and 168 h. The volumes were made up with fresh release medium after each sampling. The concentration of SM in a sample was determined by UV spectroscopy at 432 nm after dilution with methanol in ratio of 1:10. For all the formulations, in vitro release tests were carried out in triplicate and results were described as cumulative quantity of drug released at each point of time.

For series [2], the system named is ARPE-19 cells. As to the kind of experiment: Cytotoxicity study (MTT assay). Format: cell-based, human. To be noted: 20 μM. On the procedure:
Cell culture. ARPE-19, a human retinal pigment epithelial cell line ([…]) cells were grown and maintained in DMEM F12 medium supplemented with 10% v/v FBS and 1% 10,000 U/ml penicillin-streptomycin antibiotics. The cell cultures were allowed to incubate at 37° C. temperature, in a humidified atmosphere with 5% CO2. Cytotoxicity study. The MTT assay was carried out to determine cytotoxicity of SM-NPs as well as in SM-NPs gel in comparison with pure drug solution, in ARPE-19, human retinal pigment epithelial cells. The cells were seeded in 200 μl of DMEM F12 supplemented with 10% FBS in a 96 well plate (Corning, N.Y.) at a seeding density of 5000 cells/well and incubated for 24 h at 37° C., 5% CO2 atmosphere to allow attachment and growth of the cells. SM drug solution and formulations with various concentrations of SM were prepared by first dissolving SM in DMSO and then diluting them with DMEM F12 medium without FBS. The cells were treated with formulations after 24 h of seeding and incubated for […]. […] Intensity of color produced after dissolution of formazan crystals was quantified by measuring optical density at 595 nm wavelength by microtiter plate reader (Spectra MAX 190, Molecular Devices, California, USA). […] Cell viability were calculated graphically from concentration vs viability curves, considering the optical density of control well as 100% viable.
In general terms: Tetrazolium dyes change colour on reduction, which living cells bring about.

Series [3] deals with ARPE-19 cells. Description: Wound scratch assay (cell migration, with or without VEGF165). To be noted: 1 μM, 48 h. The series is classed as cell-based, human. The protocol:
Wound scratch assay. Wound healing assay was performed as per the earlier reports to analyse the inhibitory effect of SM and its formulation on VEGF165 (rhVEGF; R&D Systems) induced angiogenesis. ARPE-19 cells were seeded and allowed to grow to attain 80% confluency in 24-well plates. Carefully, wounds were made by pipette tip to take out monolayer of cells as a strip. The wounds were created typically with around 300 μm of the average size and […] variation in wound width was considered for the study. To ensure removal of partially adhered cells on the plates due to creation of the wound, they were washed with sterile PBS twice. The cell wells were then treated with at 1 μM and 10 μM concentrations of SM-NP gel formulations in DMEM F12 media without FBS. Cell migration was observed by using ZEISS inverted phase contrast microscope, (Axicom 506 mono) with Axicom MRCS-ZEN2pro software and quantified by calculating the area covered by the cells because of cell migration from the wound edges towards the center area of the wound using ImageJ software. To check the effect of presence of VEGF on the cell migration, two wells were also kept at above two concentrations and treated with VEGF simultaneously. […] The width of the wound was measured using images captured by microscope. […]

The subject of series [4] is VEGF-A secretion in ARPE-19 cells. Description: VEGF inhibition using ELISA. Format: cell-based, human. On the procedure: VEGF inhibition using ELISA. Human retinal pigmented epithelium ARPE-19 cells were seeded in 24 well plate at density of 5×10^4 cells/mL and allowed to grow for 24 h in DMEM F12 medium supplemented with 10% FBS and were incubated at 37° C., 5% CO2 atmosphere till wells became confluent. After 24 h, the culture media was replaced by incomplete media which is DMEM F12 without FBS and treatment with formulation was given. […] Quantification of the VEGF secretion in the culture media was done by ELISA method using Human VEGF-A Platinum ELISA Kit following manufacturer's instructions. The protein content in the cells were estimated using Pierce BCA protein assay kit after collecting cell lysate and the by normalizing VEGF secretion to total protein. Samples were read using ELISA plate reader (Spectra MAX 190, Molecular Devices, California, USA) at 450 nm absorbance and 550 nm and difference was recorded, followed by calculating inhibition of VEGF secretion using standard curve.

The structures appear in SMILES notation.

For the compound `CCN(CC)CCNC(=O)c1c(C)[nH]c(/C=C2\C(=O)Nc3ccc(F)cc32)c1C` [SM solution, Sunitinib malate], in series [1], the Release kinetics model entry is “first order drug release”. In addition, the “Cumulative drug release at 1 hr” value in series [1] (PBS pH 7.4, 0.1% Tween 80, 37° C.) was 80%±2.5%. The Viability lost in series [2] (24 h) came to 25%; in series [2] (48 h) it was 30%. Besides, in series [3], the Wound recovery is listed as 80±1.8%. Also, the “VEGF secretion” value in series [4] (12 hr, compared to the NPs treatment) is reported as “noticeably reduced”. The VEGF expression levels in series [4] (48 h, 10 μM SM equivalent, control = 100%) stood at 90%. The activity at 10 µM in series [4] (Homo sapiens, ARPE-19, 12 h, 10 μM SM equivalent, control = 100%, read-out: Inhibition of VEGF levels) worked out at 56 ± 3%.
